Experimental data from patent publication US10087242B2 (INSTITUT PASTEUR, priority 2007, dated 2018).

Experiments:
Assay type in all cases: binding, mouse
mIgG C7-37 = assay: inhibition ELISA: oligosaccharide inhibits fixation of mIgG C7-37 on LPS 3a; conditions: concentration of oligosaccharide giving 50% inhibition of fixation of the mAb on LPS 3a (S. flexneri 3a)
Description: (§1) The oligosaccharide determinants recognized by the four mAbs obtained were characterized by measuring, by inhibition ELISA, the interaction of the various oligosaccharides synthesized with these mAbs.
(§2) 1) First, a standard curve OD=f(concentration of the mAb) was established for each antibody.
(§3) For this, purified LPS from S. flexneri 3a was fixed in the wells of ELISA plates (96-well plate), at a concentration of 25 μg/ml in a carbonate buffer pH 9.6, at 4° C., overnight.
(§4) After washing the wells with a solution of PBS/ Tween 20 (0.05%) 1% and a stage of saturation with PBS/BSA 1% for 30 minutes at 4° C., various concentrations of each mAb were incubated for 30 minutes at 4° C. After a washing stage, a secondary antibody coupled to alkaline phosphatase and specific to the mouse IgGs or IgMs was added at a dilution of 1/5000 (Sigma-Aldrich) for 1 h at 37° C. After washing, the enzymatic reaction was carried out with the specific substrate of alkaline phosphatase (12 mg of p-nitrophenylphosphate in 1.2 ml of Tris-HCl buffer 1M (pH 8.8) and 10.8 ml of 5M NaCl). Once the color reaction had developed, the plates were read at 405 nm (Dynatech MR 4000 plate reader). The standard curve OD =f(Ab concentration) was refined with the equation Y=aX2+bX+c, where Y corresponds to the OD and X to the antibody concentration. A correlation factor (r2) of 0.99 was generally obtained.
(§5) 2) The concentration of oligosaccharide capable of inhibiting 50% of the fixation of the mAb on LPS 3a was then determined as follows.
(§6) Each mAb was used at a given concentration, defined as the first concentration tested giving a maximum OD on the standard curve (the first point at the start of the plateau of the curve). Various concentrations of each of the oligosaccharides to be tested were then incubated separately with the mAb at constant concentration, overnight at 4° C., in 1% PBS-BSA buffer. Measurement of the free antibody concentration was carried out as stated above, after incubation of the mAb/oligosaccharide mixtures at 4° C. for 30 minutes on plates covered with LPS 3a and using the standard curve obtained in parallel on the same plate. For each mAb and each oligosaccharide, a value called IC50 was then calculated, corresponding to the concentration of oligosaccharide permitting 50% inhibition of the fixation of the mAb on LPS 3a.

mIgG G7-12 = assay: inhibition ELISA: oligosaccharide inhibits fixation of mIgG G7-12 on LPS 3a; conditions: concentration of oligosaccharide giving 50% inhibition of fixation of the mAb on LPS 3a (S. flexneri 3a)
Description: as §1, §2, §3, §4, §5, §6

IgM (G 19-2) = assay: inhibition ELISA: oligosaccharide inhibits fixation of IgM G19-2 on LPS 3a; conditions: concentration of oligosaccharide giving 50% inhibition of fixation of the mAb on LPS 3a (S. flexneri 3a), inhibition ELISA
Description: Protocol 2) Ten Balb/C mice and four BP2 mice were immunized by i.p. injection with virulent live bacteria of the strain S. flexneri 3a, every three weeks, using 2×10^6 bacteria for the first 2 immunizations and 5×10^6 for the next 4. As the anti-LPS 3a antibody response was too weak for performing cellular fusion, an additional series of 4 injections was carried out. Two mAbs of type IgM, G19-2 and L18-9, were obtained.
as §1, §2, §3, §4, §5, §6

Molecule	IC50 (mIgG C7-37) [mM]	IC50 (mIgG G7-12) [mM]	IC50 (IgM (G 19-2)) [mM]
CCCO[C@@H]1O[C@H](CO)[C@@H](O)[C@H](O[C@@H]2O[C@@H](C)[C@H](O)[C@@H](O[C@@H]3O[C@@H](C)[C@H](O)[C@@H](O)[C@H]3O[C@@H]3O[C@@H](C)[C@H](O)[C@@H](O[C@H]4O[C@H](CO)[C@@H](O)[C@H](O)[C@H]4O)[C@H]3O)[C@H]2O)[C@H]1NC(C)=O [EABCD-OPr, Propyl α-D-glucopyranosyl-(1→3)-α-L-rhamnopyranosyl-(1→2)-α-L-rhamnopyranosyl-(1→3)-α-L-rhamnopyranosyl-(1→3)-2-acetamido-2-deoxy-β-D-glucopyranoside]	> 1	> 2.5	> 2.5
Propyl (2/3-O-acetyl-α-L-rhamnopyranosyl)-(1→3)-(2-acetamido-2-deoxy-β-D-glucopyranosyl)-(1→2)-(α-D-glucopyranosyl-(1→3)-α-L-rhamnopyranoside [C(2-OAc)DEA-OPr]	> 5	> 2.5	> 2.5
